According to a melting point compilation (Tetko et al.; mined from patent text by program, amines drawn as free bases though some values may be those of a salt):

melting point [°C]	Structure (SMILES)
270	O=C(Nc1cc(S(=O)(=O)N2CCC(O)C2)sc1Cl)c1cnn2c(C(F)(F)F)cc(-c3ccc(C(F)(F)F)cc3)nc12 (racemic)
160 to 162	Cc1c(NC(=O)c2ccc(OCC3CCOC3)cc2)ccc2cc(CN3CCC(C)(O)CC3)cnc12 (stereo not drawn)
157	CC(=O)N1c2ccc(S(=O)(=O)C[N+](=O)[O-])c(C)c2CC1C (stereo not drawn)
198 to 202	CC(C)(C)OC(=O)N1CCC=C(C(=O)O)C1
179 to 180	CCN(C)C(=O)NS(=O)(=O)c1ccccc1OC(Cl)=CCl
105 to 107	O=C(O)CCCCc1ccc([N+](=O)[O-])cn1
101 to 103	CC1C(=O)Oc2cc(N3CCCC3)ccc21 (stereo not drawn)
88 to 90	CCn1ncc2cc3c(nc21)CCc1ccccc1C3=O
92.5 to 93	CC1(C)C(=O)CC(=O)C(C)(C)C1=O
200	O=C(NCc1ccc(Cl)cc1)c1ccc2sc(CN3CCOCC3)cc2c1O
109	CC(C)N1C(=O)C(=O)N(c2cc(Cl)cc(Cl)c2)S1=O (stereo not drawn)
167	CC(=O)OC1CSC(Oc2cnccc2-c2ccoc2)C(OC(C)=O)C1OC(C)=O (stereo not drawn)
204	O=C1CCN(c2cc3c(cc2-c2ccc(F)cc2)NC(=O)CC(c2cccc(-n4ccnc4)c2)=N3)CC1
120 to 122	COc1cccc(NC(=O)NCC2(c3ccccc3)CCCCC2)c1
119 to 121	CCCCc1sc(C(N)=O)c2c1-c1c(cnn1C)CC2
125 to 127	C=CCC1C(=O)CCCC1=O
212 to 214	CC(=Cc1ccc(C(=O)O)cc1)[N+](=O)[O-]
254	CCOP(=O)(OCC)C1CCc2c([N+](=O)[O-])c(C(F)(F)F)cc3[nH]c(=O)c(=O)n1c23 (stereo not drawn)
65 to 66	O=C(CN1C(=O)CC1SCc1ccccc1)NCCCCCCc1ccc(F)cc1F (stereo not drawn)
79 to 81	C=CC(=O)N1CCSc2ccc(OC)cc2C1
98 to 100	CCOC(=O)c1c(C)ncn(-c2ccc(Cl)cc2)c1=O
178	CC(C)Cn1c(=O)n(C)c(=O)c2cn(Cc3cccc4ccccc34)nc21
169 to 171	CCOC(=O)N1Cc2sc3ncn(CCCl)c(=O)c3c2C1
224 to 226	COC(=O)c1cccc2c(=O)c3cc(I)ccc3[nH]c12
52 to 54	CCOC(=O)Cc1ccc(C(=O)Cl)n1C
190	COc1ccc(CC2CCN(C(=O)NC(=O)c3ccc(O)cc3)CC2)cc1
270	CCC(=O)Nc1cccc2c1CCC(NC(=O)CC)C2 (stereo not drawn)
138 to 139	COC(=O)C1(NC(=O)Cc2cc(C(C)=O)ccc2C)CCN(OC)CC1
204 to 208	CCS(=O)(=O)Nc1ccc(C(=O)CN2CCN(c3ccncc3)CC2)cc1
233 to 236	CCCCOc1ccc(-c2ccc3c(c2)C=C(C(=O)Nc2ccc(CN(C)C4CCOCC4)cc2)CCS3(=O)=O)cc1

More lines, now with the values behind:

Structure (SMILES)	melting point [°C]
O=[N+]([O-])c1ccc2c(Br)cc3nc(O)c(O)nc3c2c1	> 300
FC(F)(F)c1ccc(Cl)nn1	51 to 52
Cc1cc(OCCCCCCCCNC(=O)c2cc(-c3cccc(Cl)c3)c(OCC(=O)O)c(-c3cccc(Cl)c3)c2)ccc1F	138 to 140
CC(=O)Nc1ccc(-c2coc3cc(OC(C)=O)c(O)cc3c2=O)cc1	265 to 266
O=C(NCCCNS(=O)(=O)c1ccc(Oc2ccccc2)cc1)P(=O)(O)O	165 to 168
O=C(Nc1ncc(C(=O)NCCO)s1)c1cn(Cc2ccc(Cl)c(Cl)c2)nn1	275
COC(=O)C(=O)c1cn(CCO)c2ccc(OCc3ccccc3)cc12	148 to 150
CC1(C)N=C(c2ccccc2F)c2cc(N)ccc2NC1=O	203
c1ccc(-c2cc3nnc(-c4ccccc4)n3nc2OCc2cscn2)cc1	236
CC(C)(C)N(O)Cc1ccc(CN(O)C(C)(C)C)cc1	137 to 138
CCOC(=O)C(=Cc1cc(C(C)(C)C)c(O)c(C(C)(C)C)c1)c1cccnc1	120
COCn1cc(-c2coc3ccc(-c4nnc(C)o4)cc23)cn1	128 to 129
CCCc1nnc(Cc2cn(-c3ccccc3)nc2OCc2ccc(OCc3nc(-c4ccco4)oc3C)c(OC)c2)o1	102 to 103
CCCCCCCCCCCCn1nnc(CN(Cc2ccccc2)C(=O)Nc2c(OC)cc(OC)cc2OC)n1	57 to 59
NC(=O)c1nn(-c2ccc(S(N)(=O)=O)cc2)c2cc(-c3ccc(F)cc3)ccc12	314 to 315
COCc1nc2c(N)nc3cc(OCc4ccccc4)ccc3c2n1CCc1ccccc1	195 to 197
COc1ccc(-c2nc(CN(C)c3ccccc3)nc3cc(OC)c(OC)cc23)cc1OC	141 to 143
COc1ccc(CNc2nc(N)c(C(=O)c3cc(C)sc3C)s2)cc1	175
CNC(=O)[C@H](Cc1cncn1C)NC(=O)C(Cc1cccc2ccccc12)Cc1cccc2ccccc12	250 to 252
Cc1cc(C#N)cc(-c2ccc3c(c2)C(C)(C)OC(=O)N3)c1	256 to 258
COC(=O)c1ccc(O)c(C(=O)CC(=O)c2ccccc2OC(C)C)c1	105 to 107
CN1C(=O)N(c2c(Cl)cccc2Cl)Cc2cnc(NCCc3ccc(N)cc3)nc21	174 to 175
N#Cc1c(N2CCCCC2)cc(-c2ccccc2)c2c1-c1ccccc1C2	156

Structure (SMILES)	melting point [°C]
CNC(=NCCCCc1nccs1)NC#N	87 to 89.5
COC(=O)NNC(=S)Cc1ccc(Cl)cc1	148
CN1CCc2cc(O)c(O)c(Sc3ccc(F)cc3)c2CC1	105 to 114
COc1ccc(NC(=O)c2ccc(F)c(F)c2)cc1NC(=S)Nc1cccc(C(=O)O)c1	218 to 220
Cc1cnc(NC(=O)c2cc(Oc3cnc(C(=O)N(C)C)cn3)cc(O[C@@H](C)COC(F)F)c2)cn1	75
CCCCCCC(Oc1c(Br)cc(-c2ccc(-c3c(Cc4ccccc4)oc4ccccc34)cc2)cc1Br)C(=O)O (stereo not drawn)	72 to 74
CC(=O)c1ccc(-c2ccc(F)cc2Cl)c([N+](=O)[O-])c1	93 to 95
CCOC(=O)CC(=O)c1cccc(-n2ccnn2)c1	72 to 74
N#CNC1NN=C(c2ccc3ccccc3c2)S1 (stereo not drawn)	> 260
CC(C)c1cc2c(cc1Oc1ccc(C(=O)O)cc1)C(C)(C)CCC2(C)C	205 to 206
COc1cccc(C2=CCN(c3ccc(Cl)nn3)CC2)c1	126
OCn1cc(-c2cc3nccnc3[nH]2)c2ccccc21	> 320
CCCc1c(OCC(O)CSc2ccc(C(=O)CCC(=O)O)cc2)ccc(C(C)=O)c1O (stereo not drawn)	115 to 116
O=C(O)[C@H](Cc1ccccc1)C[C@@H](Cc1ccccc1)C(=O)O	150 to 152
COC(=O)C(C)Oc1ccc(Oc2cnc3cc(Cl)c(Cl)cc3n2)cc1 (stereo not drawn)	100 to 105
Cc1ccc(C(=O)O)cc1NC(=O)C(CS)Cc1ccccc1 (stereo not drawn)	192 to 194
CN(C)C=NC(=S)Nc1ccccc1	139 to 143
CN(C)C(=O)Nc1ccc(SCc2nc(Cl)ccc2Cl)cc1	112 to 114
COc1cc(OC)c(/C=C/S(=O)(=O)Cc2ccc(OC)c([N+](=O)[O-])c2)c(OC)c1	186 to 187
O=C(C#Cc1ccc(C(F)(F)F)cc1Cl)Nc1ccc(OCCn2cnnc2)cc1	223 to 227
COc1ccc(NC(=O)CN(C(=O)CNC(=O)Nc2cccc(C)c2)c2ccccc2)cc1	194
Nc1cn(-c2cccnc2)nc1C(F)(F)F	112 to 115
CC1(C)OC(=S)Nc2ccc(-c3cc(C#N)cs3)cc21	258 to 259

Structure (SMILES)	melting point [°C]
Cc1c(Nc2c(C#N)cnc3sc(-c4ccc(OCCN(C)C)cc4)cc23)ccc2[nH]ccc12	182 to 184
COC(CNC(=S)N1CCN(c2ccc(O)cc2)CC1)OC	161
CCCc1nc(C)n2nc(C(=O)OCC)nc2c1Cc1ccc(-c2ccccc2C#N)cc1	108
Cc1c(-c2ccncc2)[nH]c(-c2ccncc2)c1S(C)(=O)=O	232 to 234
CC(=O)Sc1ccc(C#Cc2ccc(C=O)cc2)cc1	128 to 129
CN(C)c1ccc(-c2nc(C#N)c(C#N)nc2C#N)cc1	198 to 200
Cc1ccn(-c2ccc(S(C)(=O)=O)cc2)c1-c1ccc(OC(F)F)cc1	98 to 99
Cc1cc2c(-c3ccccc3Cl)c(NC(=O)Nc3cccc([N+](=O)[O-])c3)c(=O)n(C)c2cc1C	190 to 192
CCCc1c(OCCCOc2ccc(C(=O)O)cc2F)ccc(C(C)=O)c1OC(C)=O	144 to 145
CCCCCCCOc1ccc(COc2ccc(-c3ccc(OC(C)CCCCCC)cc3)cc2)cc1 (stereo not drawn)	98.1
COC(=O)Nc1ccc(C(=O)N(C)C)c(S(=O)(=O)NC(C)(C)C)c1	184 to 188
Cc1c(C)c2c(c(C)c1O)SC(CCCO)O2 (stereo not drawn)	116 to 117
COc1ccc(NC(=O)NC(=O)Oc2ccccc2)cc1OC	140 to 142
COc1cc2ncnc(N3CCN(C(=O)NCCc4ccc(Cl)cc4)CC3)c2cc1OC	177 to 178
NC(Cc1cccc2c(Cl)cccc12)=NO	121 to 125
COC(=O)c1ccc(Cn2c(=O)c3cc(C(=O)NCc4ccc(OC)cc4)sc3n(C)c2=O)cc1	235 to 237
Cc1cncn1-c1cccc([N+](=O)[O-])c1	130 to 132
CCCS(=O)(=O)c1nc2cc(-n3nc(C)n(C)c3=O)c(F)cc2s1	196 to 198
COC(=O)c1ccc(-c2ccccc2CBr)cc1	80 to 81
CN(C)c1cccc(C(=C2CN(C(c3ccccc3)c3ccccc3)C2)S(C)(=O)=O)c1	176
CC(=CCOc1ccc(OC(C)(C)C(=O)O)cc1)c1ccc(-c2ccccc2)cc1	148 to 150
CCN(CC)S(=O)(=O)c1cc(-c2csc(=Nc3ccc(Cl)cc3)n2C)ccc1Cl	198
